Measured values published in patent US20240368212A1, “SELECTIVE ISONITRILE INHIBITORS OF CYTOCHROME P450 SUBTYPES” (priority 2021, published 2024).
“Also recorded” adds a separate entry of the source. Where two headings read alike, the source gives them in different places.

How the values were obtained:
CYP17A1 [1] = biological target: T1, CYP17A1 (Homo sapiens, UniProt P05093); experiment: Inhibition assay, 17α-hydroxylation of progesterone by CYP17A1; assay type: biochemical
T1 sequence (P05093 24-508 limits assumed): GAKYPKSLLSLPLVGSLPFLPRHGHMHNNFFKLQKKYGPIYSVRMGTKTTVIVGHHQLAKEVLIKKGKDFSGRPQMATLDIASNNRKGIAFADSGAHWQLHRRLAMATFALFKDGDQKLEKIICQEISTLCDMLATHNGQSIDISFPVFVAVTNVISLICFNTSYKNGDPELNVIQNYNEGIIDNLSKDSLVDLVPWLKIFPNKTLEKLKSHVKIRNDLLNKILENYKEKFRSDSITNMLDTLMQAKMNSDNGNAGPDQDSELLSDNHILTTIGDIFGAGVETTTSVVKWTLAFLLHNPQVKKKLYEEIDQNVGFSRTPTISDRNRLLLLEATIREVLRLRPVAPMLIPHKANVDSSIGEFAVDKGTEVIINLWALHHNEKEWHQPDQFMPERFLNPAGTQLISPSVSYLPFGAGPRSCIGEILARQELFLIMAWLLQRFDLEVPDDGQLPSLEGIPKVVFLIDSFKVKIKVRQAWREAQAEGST
Description: (Adapted from DeVore, NM, Scott, EE. (2012). Nature, 482(7383), 116-119.) Metabolic activity of CYP17A1 was evaluated by measuring 17α-hydroxylation of progesterone as detected HPLC with UV detection at 240 nm. A 1:4 ratio of CYP17A1 to recombinant NADPH-cytochrome P450 reductase was mixed and incubated on ice for 20 minutes. […] Reaction vials were warmed to 37° C. for three minutes, then catalysis was initiated by adding NADPH to a final concentration of 1 mM. After 10 minutes, metabolism was quenched by adding 300 μL of 20% trichloroacetic acid and placed on ice. The reaction vials were centrifuged to pellet the precipitated protein, then the supernatant was injected onto a C18 column (Phenomenex, Luna, 50×4.6 mm) for HPLC. The 30-minute HPLC method ran at 0.8 m/min and started with a mobile phase of 60% acetonitrile, 40% water with 0.2% acetic acid for five minutes, increased to 80% acetonitrile over 10 minutes, held at 80% acetonitrile for five minutes, 100% acetonitrile for five minutes, then returned to 60% acetonitrile to prepare for the next sample. Metabolite elution was normalized to β-estradiol as an internal standard. A standard curve of known product concentrations was used to convert normalized area under curve to amount of product produced. […]

CYP17A1 [2] = biological target: T2, CYP17A1 (Homo sapiens, UniProt P05093); experiment: Ligand binding assay, UV-visible difference spectra titration; conditions: for spectroscopic evidence of binding to CYP17A1 (heme spectral shift): result in words
T2 sequence (P05093 1-508): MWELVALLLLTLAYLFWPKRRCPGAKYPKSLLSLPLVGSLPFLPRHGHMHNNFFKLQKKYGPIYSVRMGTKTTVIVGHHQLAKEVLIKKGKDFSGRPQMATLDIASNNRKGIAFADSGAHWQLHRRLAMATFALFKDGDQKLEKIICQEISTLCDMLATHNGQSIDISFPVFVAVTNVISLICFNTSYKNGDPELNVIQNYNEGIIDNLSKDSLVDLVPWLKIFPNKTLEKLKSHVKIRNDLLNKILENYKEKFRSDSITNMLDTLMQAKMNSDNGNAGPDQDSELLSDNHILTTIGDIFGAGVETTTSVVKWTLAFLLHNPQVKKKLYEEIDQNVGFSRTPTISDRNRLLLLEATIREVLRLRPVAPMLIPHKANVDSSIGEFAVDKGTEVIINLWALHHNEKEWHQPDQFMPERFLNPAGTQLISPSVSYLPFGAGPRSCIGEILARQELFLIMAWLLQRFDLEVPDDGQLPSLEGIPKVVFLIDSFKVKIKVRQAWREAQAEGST
Description: Ligand binding assays. (Adapted from DeVore, N M, et al. (2009). Drug Metabolism and Disposition, 37(6), 1319-1327.) Ligand interaction with the heme iron was evaluated by titrating ligands into a cuvette containing purified CYP17A1, CYP2D6, or CYP3A4 and measured using a UV-visible scanning spectrophotometer. […] Ligands dissolved in DMSO were added to the sample cuvette and an equal volume of DMSO to the reference cuvette. Difference spectra were recorded from 300-500 nm after equilibration of enzyme and ligand. Binding to the enzyme was measured as the difference in maximal and minimal absorbance: A387-A419 for pregnanolone and 3-formyl pregnanolone, and A435-A393 for 3-formyl pregnanolone-20-isonitrile with CYP17A1; A434-A414 for 3-formyl pregnanolone-20-isonitrile with CYP3A4 and CYP2D6. […] All data fitting was accomplished using GraphPad Prism 9.

CYP106A2 = CYP106A2 (Priestia megaterium, UniProt Q06069); experiment: Optical difference spectrum titration of CYP106A2; assay type: binding, bacterial; conditions: result in words
Description: FIGS. 3A-3C show the optical difference spectra when various compounds are titrated with CYPs. […] The maximum absorbance was at 430 nm and the trough was at 393 nm. […] The trough was at 418 nm.
Ligand binding assays. […] All data fitting was accomplished using GraphPad Prism 9.

Sequence of CYP106A2 (Q06069 whole entry): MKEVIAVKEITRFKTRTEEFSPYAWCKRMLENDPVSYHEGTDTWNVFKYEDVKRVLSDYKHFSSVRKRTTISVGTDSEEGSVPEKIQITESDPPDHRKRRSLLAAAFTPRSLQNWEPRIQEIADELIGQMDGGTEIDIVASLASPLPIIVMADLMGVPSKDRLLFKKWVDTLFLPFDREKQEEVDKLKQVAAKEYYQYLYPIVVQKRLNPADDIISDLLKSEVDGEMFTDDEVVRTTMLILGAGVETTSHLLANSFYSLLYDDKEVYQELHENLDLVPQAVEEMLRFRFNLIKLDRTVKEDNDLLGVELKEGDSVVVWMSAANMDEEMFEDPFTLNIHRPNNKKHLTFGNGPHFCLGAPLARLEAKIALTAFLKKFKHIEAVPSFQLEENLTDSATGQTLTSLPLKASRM

Row | Molecule | IC50 (CYP17A1 [1]; CYP17A1 progesterone hydroxylation, 11.5 μM progesterone) [nM] | inhibition of CYP17A1 progesterone hydroxylation (CYP17A1 [1]; result in words, FIG. 5B) | Kd (CYP17A1 [2]) [nM] | spectroscopic evidence of binding to CYP17A1 (heme spectral shift) (CYP17A1 [2]) | Kd (CYP17A1 [2]; CYP17A1 0.2 μM, tight binding, only estimates, read-out: Kd) [nM] | spectroscopic evidence of binding to CYP106A2 (Fe—CN—R bond formation) (CYP106A2) | spectroscopic evidence of binding to CYP106A2 (Fe—CN—R bond formation) (CYP106A2; listed as 3)
1 | [C-]#[N+][C@H](C)[C@H]1CC[C@H]2[C@@H]3CC[C@H]4C[C@@H](OC=O)CC[C@]4(C)[C@H]3CC[C@]12C [Compound 16] | 1300 | inhibited | < 100 | induced the expected heme spectral shift from 417 to 428 nm; also recorded: bound to CYP17A1; also recorded: bind very tightly |  |  | 
2 | C[C@]12CC[C@H](O)CC1=CC[C@@H]1[C@@H]2CC[C@]2(C)C(c3cccnc3)=CC[C@@H]12 [abiraterone, reference compound] |  |  |  |  | < 100 |  | 
3 | 3β-formyl-(R)-(20-isonitrilo)pregnane [20-(R)-16] |  |  |  | binds tightly |  | no evidence for formation of a Fe—CN—R bonded complex | no evidence of binding
